Experimental data as given in US7115666B2, “Nitrone compounds, pharmaceutical compositions containing the same and methods for treating inflammation and neuropathic pain” (Renovis, Inc., priority 2002, dated 2006).
“Also recorded” adds a separate entry of the source. Blank lines part the entries; values can stand above or below the molecule they belong to.

Assays:
[1] = system: Taxol-induced neuropathic pain model in mice; assay: Taxol-induced neuropathic pain model, mechanical allodynia (von Frey filament); format: in vivo
Source text: Taxol is a chemotherapeutic reagent for treatment of cancer patients. Cancer patients under Taxol chemotherapy can develop neuropathic pain, with a symptom of severe mechanical allodynia, so that a light touch (non-noxious stimulus in a normal condition) becomes painful. […] Recent studies have shown that Taxol is involved in TNF-alpha release in microglia cells. As one of the clinically relevant models, Taxol-induced neuropathic pain was developed in mice and rats. It is believed that small-diameter high threshold nociceptive C-fibers in the peripheral sensory nervous systems are largely, if not exclusively, affected in the Taxol-induced neuropathic pain models.
In this series of experiments, five-week old, male C57B1/6 mice were purchased from Charles River and housed at the Renovis animal facility in South San Francisco. Mice were trained for one week in an enclosure made of Plexiglas with dimensions of 2 in×2.5 in×3.5 in (W, H, and L) with a meshed metal support. The baseline of response to mechanical stimulus was measured using a von Frey Filament (0.6 g=3.84 mN). Normally, the baseline response is between 0 to 40%.
Taxol was dissolved (1 mg/ml) in 50% Cremophor EL and 50% alcohol, and freshly diluted with saline to the final concentration of 0.2 mg/ml in 10% Cremophor EL, 10% alcohol. Mice were administered Taxol at 1 mg/kg of body weight, via i.p. daily, while the animals of the control group received vehicle (10% Cremophor EL and 10% alcohol in saline).
Animals receiving this daily dose of Taxol will develop neuropathic pain. The mechanical allodynia was measured at day 7, 8, or 14 after Taxol administration.
A quantity of 200 mg of compound 14 (Example 14) was dissolved in 0.4 ml of 100% DMSO to yield a concentration of 500 mg/ml, and was kept at 4° C. until use. Methylcellulose was dissolved in deionized-distilled water to yield a concentration of 1%. The freshly prepared meythlcellulose was used to make a suspension of the compound, 10 mg of compound in 2.5% DMSO (V/V) and 1% methylcellulose. The suspension was sonicated for 6 min with a 5 second interval every 30 seconds before administration to animals.
A quantity of 50 mg/kg (body weight) compound or vehicle (2.5% DMSO and 1% methylcellulose), 100 μl/20 g (body weight) was given to animals via gavage feeding procedure in a randomized, blinded fashion. The animals were then placed in the enclosure for assay. Mechanical allodynia was measured with von Frey filament (0.6 g=[…]) at various times after administration.
Referring to FIG. 5, baseline in the group of animals was measured as 25+/−4% (n=24, ±SEM) before induction of neuropathic pain with Taxol (or sham treatment), where the response was measured with a von Frey filament (0.6 g=3.84 mN) as the percent of trials a withdrawal response is observed after probing with the filament. The higher the percentage, the greater the inferred pain.
Sixteen animals were treated with Taxol daily to induce neuropathic pain. Mechanical allodynia was assayed at day 8; average withdrawal response was measured as 81±5% (n=16, ±SEM). Sixteen animals were treated with matching vehicle to create sham animals. The Taxol and sham animals were then separated randomly into two groups of 8 animals each for drug vs. vehicle testing. Withdrawal responses to a von Frey filament probe were measured at 1, 6, 24, and 72 hours post-administration of drug or vehicle control, and averaged for each animal. […] Negative values reflect a reduction in inferred pain.
For mouse neuropathic pain studies, C57B1/6 strain, five-weeks old male mice were obtained from Charles River, San Diego, Calif. A total of 120 mice were used for the studies. 4 mice per cage were housed under standard conditions with 12-hour light and 12-hour dark cycles (in Renovis, Inc, South San Francisco facility). For rat neuropathic pain studies, male Sprague-Dawley rats, with body weights ranging from 180–200 grams, were obtained from Harlan. A total of 42 rats were used for this study. […]

[2] = system: chronic constriction injury (CCI) rat model of peripheral neuropathy; assay: Cold allodynia assay in chronic constriction injury (CCI) rats; format: in vivo
Protocol: The purpose of the following studies was to determine whether test compounds had analgesic activity in a chronic constriction injury (CCI) rat model of peripheral neuropathy. Neuropathic rats were treated with PBN, and other test compounds or 2.5% DMSO in 1.0% MC as a vehicle and tested in a cold allodynia assay to evaluate nociceptive responses.
One week prior to the cold allodynia assay, CCI rats were prepared as follows. Male Sprague Dawley rats (158–224 g) had their right sciatic nerve loosely ligated under aseptic conditions. To observe the cold allodynia response, their paw withdrawal latency response was determined by placing rats in a cold water bath (2–4° C., 2.5 cm deep). […] Rats rendered neuropathic in the right limb display an exaggerated withdrawal response on the neuropathic side (right rear limb). For the cold allodynia assay, two pre-dose latency times to cold were recorded. The end point was an exaggerated removal of the paw from the water. […] The remaining rats were divided into treatment groups. Two separate latency times were obtained for each rat before the dose of each drug. In the first study shown in FIG. 1, rats were then dosed with Compound 1 (30 mg/kg, po) or PBN (100 mg/kg, po) as a suspension in Veh, or Veh alone (1 ml/kg, po). In the second study shown as FIG. 2, three different doses of Compound 1 (10, 30, 100 mg/kg, po) were administered to CCI rats. In both studies, latency to withdraw the ligated leg up above water level was recorded using an electronic timer. The tester was blinded to the animal's treatment group at the time of testing.
Maximum time of latency in any trial was 20 sec. Statistical significance was assessed for paired groups (pre-dose vs. post-dose) using a Wilcoxon test and between non-paired groups using a Kruskal-Wallis with a Dunn's test post-hoc. A probability value of p<0.05 was identified as statistically significant.

[3] = system: collagen footpad edema in rats; assay: Collagen arthritis assay; format: in vivo, rat; settings: for paw volume differences after treatment: FIG. 3; for activity in rat collagen model: dose not stated (Assay Results summary)
Protocol: This assay is commonly used to screen and evaluate anti-inflammatory drug candidates. See, for example, Larsson et al., Arthritis & Rheumatism, 33:693–701, 1990 and references cited therein.
For these experiments, Female DA rats (7–8 weeks of age) were immunized with Type II collagen derived from bovine nasal septum as described in Cremer et al., J. of Immunology, 149:1045–1053, 1992. The collagen was dissolved and administered with incomplete Freund's adjuvant. Standard precautions were taken to avoid denaturing the collagen before its administration such as keeping the solution cold during preparation. Rats were immunized in the base of the tail on day 0. Dosing began on day 10 with rat paws weighed and volumes taken on day 21. The arthritis was evaluated by comparing paw weights and/or paw volumes at day 21. Compounds reducing paw weight or paw volumes by at least about 30% compared to the controls were also considered effective in this assay.

[4] = system: adjuvant-induced footpad edema in rats; assay: Adjuvant assay (adjuvant-induced footpad edema); format: in vivo, rat
Protocol: This assay is a model for chronic inflammation. See, for example, B. M. Weichman, “Rat Adjuvant Arthritis: A Model of Chronic Inflammation,” Pharmacological Methods in the Control of Inflammation, 363–380 (1989) and references cited therein.
In this assay, Male Lewis rats weighing between 180–220 g were lightly anesthetized with an ip injection of 30 mg/kg of sodium pentobarbital (50 mg/ml). Desiccated Mycobacterium butyrium (Difco, 20 mg/ml) suspended in mineral oil was injected (50 μL) at both sides of the base of the tail under the skin. A line was tattooed on both rear paws at 5 mm above the angle of the ankle. The paw volumes, under the line, were measured by volume displacement using a plethysmometer (Ugo Basile) at the day of adjuvant injection (day 0) and on day 14. On day 14, animals with paw volumes equal to the mean of paw volumes ±SD were randomized into treatment groups. Rats which fell outside ±1 SD were not used in the experiment. One group received vehicle (1% methyl cellulose) by the po route and the other group received indomethacin (3 mg/kg suspended in 1% methyl cellulose). Dosing began on day 14, and continued until final assessment on day 21 post-adjuvant injection. […] This group has a slightly positive volume increase when paw volumes on day 21 are subtracted from day 0 values due to growth of the rat. […]

[5] = Taxol/mice, P.O., Single dosing, 50 Mg/Kg body weight
[6] = FIG. 2, 30 mg/kg, p.o., 90 min post-dose
[7] = FIG. 2, 100 mg/kg, p.o., 90 min post-dose
[8] = dose not stated (Assay Results summary)

SMILES: CC(C)(C)[N+]([O-])=CCCc1ccccc1 [Compound 1, N-tert-butyl-C-(2-phenylethyl)nitrone]
time postdosing of analgesic effect ([1]; 50 mg/kg single dose via oral gavage): 1 h
effect on mechanical allodynia (Taxol-induced pain) ([1]; 50 mg/kg single dose via oral gavage, von Frey filament 0.6 g, measured 1, 6, 24, up to 48 or 72 hours postdosing): analgesic effect
Effective time Hour post dosing [1, 5]: ~1 h
extent of block of mechanical allodynia [1, 5]: partial
activity in a model of painful peripheral neuropathy ([2]; 10 mg/kg, po): significantly active
post-dose latency score vs. vehicle ([2]; FIG. 1, 30 mg/kg, p.o., 90 min post-dose, Kruskal-Wallis, Dunn's test): signficant post-dose latency score over vehicle
latency to cold stimulus, post-dose vs. pre-dose score ([2]; FIG. 1, 30 mg/kg, p.o., 90 min post-dose, Wilcoxon test): Significantly higher latency scores
latency time, post-dose vs. pre-dose score ([2]; FIG. 2, 10 mg/kg, p.o., 90 min post-dose): significantly increased latency time
latency time, post-dose vs. pre-dose score [2, 6]: significantly increased latency time
post-dose latency score vs. vehicle [2, 6]: significant post-dose latency score over vehicle
latency time, post-dose vs. pre-dose score [2, 7]: significantly increased latency time
post-dose latency score vs. vehicle [2, 7]: significant post-dose latency score over vehicle
paw volume differences after treatment ([3]; dose not stated): unexpected activity
total gait scores as an index of pain ([3]; FIG. 4, lowering indicates relief from pain): significant activity; also recorded: activity as an analgesic
activity in rat collagen model [3]: significantly active

SMILES: COc1ccc(CCC=[N+]([O-])C(C)(C)C)cc1 [Compound 4, N-tert-butyl-C-[2-(4-methoxyphenyl)ethyl]nitrone]
Effective time Hour post dosing [1, 5]: None via p.o.

SMILES: CC(C)Oc1ccc(CCC=[N+]([O-])C(C)(C)C)cc1 [Compound 6, N-tert-butyl-C-[2-(4-isopropoxyphenyl)ethyl]nitrone]
Effective time Hour post dosing [1, 5]: None via p.o.

melting point: 54 to 57 °C
SMILES: CCOc1ccc(CCC=[N+]([O-])C(C)(C)C)cc1 [Compound 7, N-tert-butyl-C-[2-(4-ethoxyphenyl)ethyl]nitrone]
Effective time Hour post dosing [1, 5]: None via p.o.

melting point: 160 °C
SMILES: CC(C)(C)[N+]([O-])=CCCc1ccc(NS(=O)(=O)c2ccccc2)cc1 [Compound 10, N-tert-butyl-C-[2-(4-benzenesulfonamidophenyl)ethyl]nitrone]

SMILES: CCC(C=[N+]([O-])C(C)(C)C)c1ccc(C(C)(C)C)cc1 (stereo not drawn) [Compound 15, N-tert-butyl-C-[1-(4-tert-butylphenyl)propyl]nitrone]
Effective time Hour post dosing [1, 5]: None via p.o.

SMILES: COc1ccc(CC(C)C=[N+]([O-])C(C)(C)C)cc1 (stereo not drawn) [Compound 16, N-tert-butyl-C-[1–2-(4-methoxyphenyl)methylethyl]nitrone]
Effective time Hour post dosing [1, 5]: None via p.o.

melting point: 97.2 °C
SMILES: [O-][N+](=CCCc1ccccc1)C1CCCCC1 [Compound 18, N-Cyclohexyl-C-(2-phenylethyl)nitrone]

SMILES: CC(C)(C)c1cc(CCC=[N+]([O-])C(C)(C)C)cc(C(C)(C)C)c1O [Compound 21]
Effective time Hour post dosing [1, 5]: None via p.o.

SMILES: COc1ccc2c(c1)c(CC(=O)O)c(C)n2C(=O)c1ccc(Cl)cc1 [Indomethacin]
paw volume as compared to vehicle controls ([4]; 3 mg/kg, po, dosing day 14 to day 21 post-adjuvant): significantly reduced paw volume

SMILES: CC(C)(C)[N+]([O-])=Cc1ccccc1 [PBN, N-tert-butyl phenyl nitrone, reference compound]
activity in cold allodynia assay ([2]; FIG. 1, 100 mg/kg, p.o., 90 min post-dose): completely inactive
activity in the analgesic assay [2, 8]: completely inactive
paw volume differences after treatment ([3]; 100 mg/kg): inactive
activity in rat collagen model [3]: completely inactive
activity in the adjuvant assay [4, 8]: completely inactive
